Patent publication US20230181633A1, “METHODS OF TREATING CANCER USING A COMBINATION OF TUMOR MEMBRANE VESICLES AND METFORMIN” (METACLIPSE THERAPEUTICS CORPORATION, priority 2019, published 2023)

What was measured:
[1] = test system: immune cell subtypes in blood; assay: Immune cell subtypes in blood of 4T1-challenged mice; type: in vivo, mouse
Experimental: FIGS. 2(A-C) is a set of graphs showing percentages of T-cell subtypes in the blood of mice with 4T1 tumor. After 4T1 tumor challenge and treatment with water, TMV alone, MET alone, or TMV+MET, mouse blood samples were analyzed for percentage of CD3+ (FIG. 2A), CD4+ (FIG. 2B), and CD8+ (FIG. 2C) T-cells, in relation to CD45+ T cells. Filled circle is water treatment group, filled square is MET treatment group, filled grey triangle is TMV treatment group, upside down triangle is TMV + MET treatment group.
FIGS. 3(A-B) is a set of Fluorescence Activated Cell Sorting (FACS) plots showing presence of myeloid-derived suppressor cells (MDSCs) (FIG. 3A) and CD3+ cells (FIG. 3B) in the blood of 4T1 tumor-challenged mice.
FIG. 4 is a set of graphs showing amounts of MDSCs (top panel) and CD3+ T cells (bottom panel) in the blood of 4T1 tumor-challenged mice treated with water, TMV alone, MET alone, or TMV+MET. Filled circle is water treatment group, filled square is MET treatment group, filled grey triangle is TMV treatment group, upside down triangle is TMV + MET treatment group. **p<0.01.
The 4T1-challenged mice were further analyzed for immunological effects upon administration of TMV, MET, or both. Blood samples were obtained from mice, and samples were subjected to analysis to determine presence of immune cell subtypes.

4T1 tumor cells = assay: Lung metastasis in 4T1-challenged mice; type: in vivo, mouse
Experimental: FIGS. 6(A-B) is a set of graphs showing the amount of 4T1 tumor cells (FIG. 6A) and metastatic clones (FIG. 6B) obtained in the lungs of 4T1 tumor-challenged mice treated with water, TMV alone, MET alone, or TMV + MET. **p<0.01, ***p<0.001,
4T1-challenged mice were also analyzed for their metastatic potential. Upon sacrificing the mice, the lungs were analyzed for tumor colony forming units […] and overall total tumor cells (FIG. 6B).

[2] = test system: oral squamous cell carcinoma MOC2 cells; assay: MOC2 head and neck cancer model, tumor growth; type: in vivo, C57BL/6J mice; conditions: MOC2-challenged mice, treatment from Day 3 (FIG. 9A, 9B)
Experimental: C57BL/6J mice were inoculated with 500,000 oral squamous cell carcinoma MOC2 cells s.c. in the hind flank. Tumors were palpable at day 3 post challenge. PBS, MET alone, TMV alone, or a combination of TMV + MET was employed at days 3, 8, 13, 18, and 25. Tumor growth was measured over time. […] Filled circle is PBS treatment group, filled square is MET alone treatment group, filled grey triangle is TMV alone treatment group, upside down triangle is MET + TMV treatment group. n=5 per group, two-way ANOVA with Tukey’s multiple comparison for statistical significance. *p<0.05, **p<0.01.
In the murine head and neck MOC2 cancer model, the TMV vaccine generated from MOC2 tumors was administered at Day 3, while MET was started at Day 3 and continued every other day until end point.

[3] = test system: 4T1 mouse breast cancer cells; assay: Survival after surgical resection of 4T1 tumors; type: in vivo
Experimental: FIG. 8 is a graph showing survival of mice treated with PBS, TMV alone, MET alone, or TMV+MET after surgical resection of tumors. Mice were challenged 10 days before surgery with 4T1 tumor cells. After tumor establishment, tumors were resected on Day 0. Beginning on Day 5, 50 mg/kg metformin was administered. On Days 5 and 12, 4T1-derived TMVs were administered. […] Solid line is PBS treatment group, dashed line is MET alone, dotted line is TMV alone, dash and dot line is TMV and MET treatment.
Mice were divided into four groups of five mice per group, wherein each group was to be treated with either a PBS control, metformin (MET) alone, 4T1-derived TMV (as described in Example 1) or TMV+MET. Each mouse was challenged with 4T1 mouse breast cancer cells by subcutaneous injection and tumors were later surgically resected (Day 0). On Day 5, mice in the MET and TMV+MET groups were administered 50 mg/kg metformin in drinking water daily until Day 20. On Days 5 and 12, mice in the TMV and TMV+MET groups were administered a dose of TMVs formed from 4T1 cells. Mice were then analyzed for survival (FIG. 8).

SCCVII cells = assay: SCCVII squamous cell tumor challenge, tumor growth over time; type: in vivo, C3H/Hej mice
Experimental: FIGS. 1(A-C) is a set of graphs showing tumor growth over time. […] Tumor growth was measured over time. […] Tumors were palpable at day 3, which is when treatment with PBS, MET alone, TMV alone, or TMV + MET was initiated. The subsequent treatments were employed at days […]. […] Tumors were palpable at day 3, treatment of PBS control, MET alone, TMV alone, or TMV + MET was applied at days 10, 17, 24, 31, and 40. Tumor growth was measured over time. n=5 per group, two-way ANOVA with Tukey’s multiple comparison for statistical significance. For FIGS. 1(A-C), filled circle is PBS treatment group, filled square is MET alone treatment group, filled grey triangle is TMV alone treatment group, upside down triangle is MET + TMV treatment group. *p<0.05, **p<0.01, ***p<0.001.
In the same model (SCCVII), the TMV and MET treatment were delayed and given at Day 10 when the tumors were established (about 50 mm^2) (FIG. 1C).

MOC2 cells = assay: MOC2 spontaneous lung metastasis; type: in vivo, C57BL/6J mice; conditions: lungs harvested after 25 days of tumor growth (FIG. 10)
Excerpt: C57BL/6J mice were inoculated with 500,000 MOC 2 cells s.c. in the hind flank. […] PBS, MET alone, TMV alone, or a combination of TMV + MET was employed at days 3, 8, 13, 18, and 25. Lungs were harvested and dispersed into single cell suspension after 25 days of tumor growth. Metastatic tumor cells were selected using G418 in vitro for 11-14 days and metastatic cells were quantified using a Nexelcom T4 cell counter.
In the murine head and neck MOC2 cancer model, the TMV vaccine generated from MOC2 tumors was administered at Day 3, while MET was started at Day 3 and continued every other day until end point. […] The lungs from these MOC2-challenged mice were harvested after 25 days of tumor growth and the number of metastatic cells was quantified after suspending the lungs into a single cell suspension (FIG. 10).

What does the source list for CN(C)C(=N)NC(=N)N [MET, 3-(diaminomethylidene)-1,1-dimethylguanidine]?
amount of myeloid derived suppressor cells (MDSC) in blood samples ([1]; 4T1-challenged mice (FIG. 3A, FIG. 4 upper panel)): decreased; amount of CD3+ T cells in the blood ([1]; 4T1-challenged mice, by week 2, vs PBS control (FIG. 2A)): increased; amount of CD4+ T cells in the blood ([1]; 4T1-challenged mice, by week 2, vs PBS control (FIG. 2B)): increased; amount of CD8+ T cells in the blood ([1]; 4T1-challenged mice, by week 2, vs PBS control (FIG. 2C)): increased; lung metastasis: tumor colony forming units (4T1 tumor cells; lungs of 4T1-challenged mice at sacrifice (FIG. 6A)): not MET alone significantly reduced; lung metastasis: overall total tumor cells (4T1 tumor cells; lungs of 4T1-challenged mice at sacrifice (FIG. 6B)): not MET alone significantly reduced; MOC2 tumor growth / tumor area [2]: no reduction in tumor growth; mouse survival post-surgery (in words) ([3]; 4T1 tumors resected Day 0 (FIG. 8)): increased mouse survival; survival ([3]; at day 60 after resection of 4T1 tumors, 50 mg/kg metformin from Day 5 (FIG. 8)): 0%; tumor growth, established tumors (SCCVII cells; SCCVII, treatment delayed to Day 10, tumors about 50 mm^2 (FIG. 1C)): did not have a significant decrease in growth; tumor size (in words) (SCCVII cells; SCCVII-challenged mice, treatment from day 3 (FIG. 1B)): reduced tumor size; number of metastatic MOC2 cells per lung (MOC2 cells): did not have a significant reduction
